Test [1] concerns Karpas 422 cells. Briefly: Karpas 422 cell viability, CTG (Cell Titre Glo) assay. The conditions noted are these: Homo sapiens; Inhibition of proliferation of Karpas 422 cells (EZH2 Y641N); viability measured Day 4, Day 7 or Day 11, time point of the tabulated values not stated. It counts as cell-based, human. The protocol:
Karpas 422 cell line is a human B cell non-Hodgkin's lymphoma cell line established from a patient having DLBCL. This EZH2 heterozygotic cell line expresses a mutant form of EZH2 enzyme (Y641N) that increases histone H3 methylation and this mutation has been implicated in the tumorgenesis of lymphomas, such as DLBCL.
Karpas 422 cells (PHE cat no., 06101702) were cultured in RPMI medium supplemented with 20% fetal bovine serum and 1% penicillin/1% streptomycin and plated at a density of 1000 cells/90 µl/well in 96 well white assay plates. A dose response curve for compounds of the present invention was determined by adding a 10µl aliquot of stock solutions of varying concentrations of compounds to the same medium in each well, over a concentration range of 10µM using 3-fold dilutions to a final concentration of 1.5nM. The plates were incubated at 37° C for predetermined time periods, Day 4, Day 7, or Day 11, and the viability of the cells was measured using a CTG assay kit (Cell Titre Glo; Promega cat.no G7573) on Day 4 and Day 7 in accordance with the manufacturer's instructions.
For the viability assay for the Day 11 plates, the plates were subjected to centrifugation at 1100 rpm for five minutes on Day 7 and the supernatant was removed by aspiration. The cells were resuspended in 90 µl aliquot of the appropriate growth medium lacking the compound followed by addition of 10 µl of a 10X stock of the same compound at the same concentration. The viability of the Day 11 cells was measured using the CTG assay kit described above in accordance with the manufacturer's instructions. The IC50 values for each compound at each predetermined time point were calculated using Graph pad PRISM software and the results are shown in Table 15. A = ≤250 nM; B = […] - ≤500 nM; and C = >500 nM.

For test [2], the target named is purified human, His-tagged PRC2 complex (Homo sapiens, UniProt O75530+Q15910). Briefly: Hot Spot HMT assay: inhibition of PRC2 enzymatic activity (transfer of tritiated methyl from SAM to core histone, filter binding). The format is biochemical. Conditions: Inhibition of PRC2-mediated enzymatic activity; 10 nM PRC2 complex, 0.05 mg/ml core histone H3, 1 uM 3H-SAM, 1 hr at 30°C. From the text: The assay uses purified human, His-tagged PRC2 complex, including N-terminal His-tagged EZH2 enzyme, N-terminal Flag-tagged embryonic ectoderm development protein (EED), N-terminal His-tagged suppressor of zeste 12 (SUZ12), N-terminal His-tagged AEBP2, and N-terminal His-tagged RbAp48. In this assay, the transfer of the tritiated methyl group from radiolabeled S-adenosyl methionine (SAM) to purified core histone protein by EZH2 is quantitated after filtration to determine the activity of the core PRC2 complex in the presence and absence of compound.
purified human, His-tagged PRC2 complex, sequence (Q15910 whole entry): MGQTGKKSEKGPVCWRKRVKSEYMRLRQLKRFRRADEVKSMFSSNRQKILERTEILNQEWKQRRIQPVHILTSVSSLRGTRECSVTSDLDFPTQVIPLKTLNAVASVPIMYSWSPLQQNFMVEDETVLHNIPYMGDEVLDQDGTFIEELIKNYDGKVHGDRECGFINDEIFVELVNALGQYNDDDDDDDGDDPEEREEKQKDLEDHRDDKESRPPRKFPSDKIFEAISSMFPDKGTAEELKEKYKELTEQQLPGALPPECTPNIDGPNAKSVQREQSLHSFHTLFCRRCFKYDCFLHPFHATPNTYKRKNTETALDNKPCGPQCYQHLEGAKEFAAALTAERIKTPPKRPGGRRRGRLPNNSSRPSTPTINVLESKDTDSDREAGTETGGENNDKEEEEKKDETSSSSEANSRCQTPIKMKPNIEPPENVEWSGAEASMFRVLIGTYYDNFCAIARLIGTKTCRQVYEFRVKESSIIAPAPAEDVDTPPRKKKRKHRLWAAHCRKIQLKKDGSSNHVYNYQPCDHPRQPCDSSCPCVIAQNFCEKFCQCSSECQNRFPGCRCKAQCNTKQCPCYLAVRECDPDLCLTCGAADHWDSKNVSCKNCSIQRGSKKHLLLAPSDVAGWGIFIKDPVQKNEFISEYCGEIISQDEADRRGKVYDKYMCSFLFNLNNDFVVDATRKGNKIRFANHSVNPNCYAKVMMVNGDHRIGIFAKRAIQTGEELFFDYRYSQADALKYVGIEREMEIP
purified human, His-tagged PRC2 complex, sequence (O75530 whole entry): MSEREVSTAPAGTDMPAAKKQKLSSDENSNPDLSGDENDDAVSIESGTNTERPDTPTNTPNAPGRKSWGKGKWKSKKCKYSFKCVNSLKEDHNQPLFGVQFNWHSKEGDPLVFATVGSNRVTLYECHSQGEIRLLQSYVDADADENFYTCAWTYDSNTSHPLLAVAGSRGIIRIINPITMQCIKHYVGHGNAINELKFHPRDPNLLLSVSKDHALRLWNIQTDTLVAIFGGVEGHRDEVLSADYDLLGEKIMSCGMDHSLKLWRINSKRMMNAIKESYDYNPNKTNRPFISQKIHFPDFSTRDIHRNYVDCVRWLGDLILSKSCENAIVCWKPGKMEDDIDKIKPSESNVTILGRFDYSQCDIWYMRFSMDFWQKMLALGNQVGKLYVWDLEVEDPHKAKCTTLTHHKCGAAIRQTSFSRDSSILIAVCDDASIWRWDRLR
purified human, His-tagged PRC2 complex, sequence (Q15022 whole entry partner): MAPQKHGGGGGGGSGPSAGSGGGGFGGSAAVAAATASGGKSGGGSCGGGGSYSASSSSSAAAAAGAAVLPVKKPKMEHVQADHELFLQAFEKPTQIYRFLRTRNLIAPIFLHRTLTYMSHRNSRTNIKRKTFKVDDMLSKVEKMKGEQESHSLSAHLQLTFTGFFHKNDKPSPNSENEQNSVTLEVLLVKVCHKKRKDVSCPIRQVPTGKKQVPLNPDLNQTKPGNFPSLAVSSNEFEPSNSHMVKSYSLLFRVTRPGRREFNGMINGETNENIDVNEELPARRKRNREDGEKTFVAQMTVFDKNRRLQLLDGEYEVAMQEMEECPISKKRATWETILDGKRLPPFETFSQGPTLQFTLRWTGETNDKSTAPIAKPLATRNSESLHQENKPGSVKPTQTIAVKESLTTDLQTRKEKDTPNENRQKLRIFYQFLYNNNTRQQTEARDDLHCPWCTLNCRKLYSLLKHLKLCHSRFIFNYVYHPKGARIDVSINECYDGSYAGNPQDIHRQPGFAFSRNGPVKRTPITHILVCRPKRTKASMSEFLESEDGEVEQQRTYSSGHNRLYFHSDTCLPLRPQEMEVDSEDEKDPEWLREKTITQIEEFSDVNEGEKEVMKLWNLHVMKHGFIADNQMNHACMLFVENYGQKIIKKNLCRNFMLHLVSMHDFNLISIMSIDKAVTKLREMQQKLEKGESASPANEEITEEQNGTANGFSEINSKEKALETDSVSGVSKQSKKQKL
purified human, His-tagged PRC2 complex, sequence (Q6ZN18 whole entry partner): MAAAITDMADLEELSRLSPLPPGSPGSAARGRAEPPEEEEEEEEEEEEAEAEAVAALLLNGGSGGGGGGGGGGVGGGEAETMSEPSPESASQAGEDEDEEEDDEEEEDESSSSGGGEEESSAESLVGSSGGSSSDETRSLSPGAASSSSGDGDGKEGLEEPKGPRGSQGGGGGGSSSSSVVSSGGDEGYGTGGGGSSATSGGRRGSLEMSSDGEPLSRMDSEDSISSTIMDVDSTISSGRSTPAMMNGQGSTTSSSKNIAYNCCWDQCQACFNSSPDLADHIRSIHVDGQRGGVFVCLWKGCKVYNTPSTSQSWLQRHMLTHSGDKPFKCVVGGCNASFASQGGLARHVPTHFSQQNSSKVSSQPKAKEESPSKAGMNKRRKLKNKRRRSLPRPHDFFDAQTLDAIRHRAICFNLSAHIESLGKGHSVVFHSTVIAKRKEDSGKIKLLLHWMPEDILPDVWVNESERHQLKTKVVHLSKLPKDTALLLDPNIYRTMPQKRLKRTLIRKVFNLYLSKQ
purified human, His-tagged PRC2 complex, sequence (Q09028 whole entry partner): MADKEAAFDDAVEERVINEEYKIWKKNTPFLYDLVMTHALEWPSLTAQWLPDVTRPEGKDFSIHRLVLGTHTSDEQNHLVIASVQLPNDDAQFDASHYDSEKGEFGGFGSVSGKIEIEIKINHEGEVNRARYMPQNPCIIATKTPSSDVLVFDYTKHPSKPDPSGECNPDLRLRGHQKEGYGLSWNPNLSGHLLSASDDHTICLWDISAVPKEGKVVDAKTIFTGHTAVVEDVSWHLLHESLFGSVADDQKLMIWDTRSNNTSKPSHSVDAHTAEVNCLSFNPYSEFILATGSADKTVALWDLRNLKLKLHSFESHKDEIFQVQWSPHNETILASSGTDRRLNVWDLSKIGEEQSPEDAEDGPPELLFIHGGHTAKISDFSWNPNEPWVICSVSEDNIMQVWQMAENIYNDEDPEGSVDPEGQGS
The initial starting concentration for the serial dilutions of each compound was 1.0 µM. […] SAH (S-(5-adenosyl)-L-homocysteine) was used as a positive control for assay validation.
An aliquot of each serial dilution of test compound was added to deep 384 well plate using Acoustic Technology instrument (Echo 550, LabCyte) containing reaction buffer (50 mM Tris-HCl (pH 8.)), 0.01% Brij35, 1 mM EDTA, 1 mM DTT, 1 mM PMSF and 1% DMSO), 10 nM purified PRC2 complex and 0.05 mg/ml core histone H3 in a 5 µl volume. The reaction was mixed gently and then pre-incubated for 20 min at 30°C. The enzymatic reaction was initiated by adding 1 uM S-Adenosyl-L-[methyl - ^3H]methionine and incubated for 1 hr at 30°C. After 1 hr, the reaction product was detected using a filter binding method and the amount of tritiated H3 core histone was quantitated using a scintillation counter.

IC50 data for eleven compounds are collected here from EP4043466B1, “PRC2 INHIBITORS” (Mirati Therapeutics, Inc., priority 2018, dated 2019).

Each structure is given as a SMILES string. Where only a bound is given, the exact number is not on record here.

Consider `Cc1cc(-c2cnc(NCc3c(F)ccc4c3CCO4)n3cc(C#N)nc23)cnn1` [Example 41, 5-(((5-fluoro-2,3-dihydrobenzofuran-4-yl)methyl)amino)-8-(6-methylpyridazin-4-yl)imidazo[1,2-c]pyrimidine-2-carbonitrile], for which the IC50 in test [1] is at most 250 nM; in test [2], below 100 nM.

Turning to `N#Cc1cn2c(NCc3c(F)ccc4c3CCO4)ncc(-c3ccc(CN4CCC(F)C4)cc3)c2n1` (stereo not shown) [Example 54, 5-(((5-fluoro-2,3-dihydrobenzofuran-4-yl)methyl)amino)-8-(4-((3-fluoropyrrolidin-1-yl)methyl)phenyl)imidazo[1,2-c]pyrimidine-2-carbonitrile], the IC50 in test [1] was at most 250 nM; in test [2], below 100 nM.

For `N#Cc1cn2c(NCc3c(F)ccc4c3CCO4)ncc(-c3ccc(N)nc3)c2n1` [Example 127, 8-(6-aminopyridin-3-yl)-5-(((5-fluoro-2,3-dihydrobenzofuran-4-yl)methyl)amino)imidazo[1,2-c]pyrimidine-2-carbonitrile], the IC50 in test [1] was 250 to 500 nM; in test [2], below 100 nM.

As to `Cc1nc(C2CC2)ncc1-c1cnc(NCc2c(F)ccc3c2CCO3)n2cc(C(=O)O)nc12` [Example 7, 8-(2-cyclopropyl-4-methylpyrimidin-5-yl)-5-(((5-fluoro-2,3-dihydrobenzofuran-4-yl)methyl)amino)imidazo[1,2-c]pyrimidine-2-carboxylic acid], the 50% inhibitory concentration (IC50) is above 500 nM in test [1] and below 100 nM in test [2].

`N#Cc1cn2c(NCc3c(F)ccc4c3CCO4)ncc(-c3cncc(C(F)(F)F)c3)c2n1` [Example 132, 5-(((5-fluoro-2,3-dihydrobenzofuran-4-yl)methyl)amino)-8-(5-(trifluoromethyl)pyridin-3-yl)imidazo[1,2-c]pyrimidine-2-carbonitrile]: the concentration for half-maximal inhibition (IC50) in test [1] is 250 to 500 nM; in test [2], above 500 nM.

As for `CC(C)Oc1ccc(-c2cnc(NCc3c(F)ccc4c3CCO4)n3cc(C#N)nc23)cn1` [Example 133, 5-(((5-fluoro-2,3-dihydrobenzofuran-4-yl)methyl)amino)-8-(6-isopropoxypyridin-3-yl)imidazo[1,2-c]pyrimidine-2-carbonitrile], the IC50 was above 500 nM in test [1] and below 100 nM in test [2].

As to `Cc1cc(-c2cnc(NCc3c(Cl)ccc4c3CCO4)n3cc(C#N)nc23)n(C)n1` [Example 29, 5-(((5-chloro-2,3-dihydrobenzofuran-4-yl)methyl)amino)-8-(1,3-dimethyl-1H-pyrazol-5-yl)imidazo[1,2-c]pyrimidine-2-carbonitrile], the IC50 in test [1] and in test [2] was above 500 nM throughout.

In the case of `Cc1ncc(-c2cnc(NCc3c(F)ccc4c3CCO4)n3cc(C#N)nc23)cc1N` [Example 129, 8-(5-amino-6-methylpyridin-3-yl)-5-(((5-fluoro-2,3-dihydrobenzofuran-4-yl)methyl)amino)imidazo[1,2-c]pyrimidine-2-carbonitrile], the concentration for half-maximal inhibition (IC50) in test [1] was at most 250 nM; in test [2], below 100 nM.

For the compound `N#Cc1cn2c(NCc3c(F)ccc4c3CCO4)ncc(-c3cccnc3)c2n1` [Example 100, 5-(((5-fluoro-2,3-dihydrobenzofuran-4-yl)methyl)amino)-8-(pyridin-3-yl)imidazo[1,2-c]pyrimidine-2-carbonitrile], the IC50 was at most 250 nM in test [1] and below 100 nM in test [2].

Consider `CS(=O)(=O)c1ccc(-c2cnc(NCc3c(F)ccc4c3CCO4)n3cc(C#N)nc23)cc1` [Example 73, 5-(((5-fluoro-2,3-dihydrobenzofuran-4-yl)methyl)amino)-8-(4-(methylsulfonyl)phenyl)imidazo[1,2-c]pyrimidine-2-carbonitrile], for which the results for the IC50 in test [1] and in test [2] were at most 250 nM and below 100 nM, respectively.

With `CN(C)Cc1ccc(-c2cnc(NCc3c(F)ccc4c3CCO4)n3cc(C#N)nc23)c(F)c1F` [Example 37, 8-(4-((dimethylamino)methyl)-2,3-difluorophenyl)-5-(((5-fluoro-2,3-dihydrobenzofuran-4-yl)methyl)amino)imidazo[1,2-c]pyrimidine-2-carbonitrile], the IC50 was at most 250 nM in test [1] and below 100 nM in test [2].

As a reminder, the IC50 is the concentration that inhibits the measured activity by half. High values mean a need for much substance, low ones inhibition by little substance.
